We go through eight compounds from US11952364B2, “TRK inhibitors useful as anticancer drugs” (TYLIGAND BIOSCIENCE (SHANGHAI) LIMITED, priority 2018, dated 2024).

pIC50: −log10 of the molar value. Bounds are passed on as bounds.

In the assay the test system is Ba/F3 ETV6-NTRK2-G639R cells. Briefly: Proliferation of Ba/F3 ETV6-NTRK2-G639R cells (CellTiter-Glo). Particulars: Mus musculus, BaF3; Table 6; 72 hours. In kind it is cell-based. The source says:
Ba/F3 ETV6-NTRK2-G639R is a stable transgenic cell line constructed by KYinno Biotechnology Co., Ltd. on mouse primary B cell Ba/F3 wherein NTRK2 is highly expressed with a mutation of G at position 639 to R, and fused with ETV6 to form ETV6-NTRK2. • [Test method]: Promega's CellTiter-Glo® Luminescent Cell Viability Assay kit was used to evaluate the inhibitory activity of the compounds on the proliferation of Ba/F3 ETV6-NTRK2-G639R cells. • [Instrument]: Spectramax M3 multifunctional microplate reader from Molecular Devices. • [Test materials]: Ba/F3 ETV6-NTRK2-G639R cell line (constructed by KYinno Biotechnology Co., Ltd. (Beijing)), 96-well transparent flat-bottomed black-walled cell culture plate (Corning, catalog #3603), RPMI-1640 media (GE, cat #SH30027.01), fetal bovine serum FBS (Thermo Fisher, cat #10099-141), CellTiter-Glo® Luminescent Cell Viability Assay kit (Promega, cat #G7572), PBS (Solarbio, cat #P1020), DMSO (Sigma, cat #D2650). • [Experimental procedure]: When resuscitating Ba/F3 ETV6-NTRK2-G639R cells, the freezing tube was quickly shaken in a 37° C. water bath to melt within 1 minute. The thawed cell suspension was mixed uniformly with RPMI1640 medium containing 10% FBS, centrifuged at 1000 rpm for 5 minutes, and the supernatant discarded. 5 mL of complete medium (RPMI1640 medium with 10% FBS) was taken to resuspend the cell pellets, charged into a cell culture flask with a bottom area of 25 cm^2, and incubated in a cell incubator at 37° C., 95% humidity and 5% CO2. Cells were allowed to passage when the number of cells reached about 10^6 cells/mL. For cell passage, the old cell suspension was directly pipetted evenly, 1/5 of the cell suspension was kept, 4 mL of new complete medium was added, after pipetting evenly, the cell flask was placed in the cell incubator for further culturing. Cell plating was performed when the number of cells reached about 10^6 cells/mL again. For cell plating, 1/5 of the cell suspension was kept for further culturing as in the cell passage method, and the remaining 4/5 of the cell suspension was placed in a 15 mL centrifuge tube, detected for cell viability by Trypan blue exclusion method to ensure that cell viability was above 90%. A cell suspension with a density of 5.56×10^4 viable cells/mL was prepared with complete medium, and 90 μL of such cell suspension was added to a 96-well cell culture plate to obtain the cell density of 5000 viable cells/mL in the cell culture plate. A control group containing no cells, no compound and only complete medium (i.e. culture medium control) and a control group containing no compound but containing cells (i.e. cell control) were set. The cell plate was placed in a cell incubator overnight. The 10 mM compound stock solution in DMSO was first serially diluted with DMSO at a dilution factor of 3.16 times, to obtain 9 concentrations, and the 10th concentration was set as DMSO control without compound. Then, PBS was used to dilute the DMSO solutions of compounds of different concentrations, at a dilution factor of 100 times, so that the DMSO concentration in the compound solution of each concentration was 1%. Finally, 10 μL of each of the above solutions was added to the corresponding cell culture plate, so that the initial compound concentration was 10 μM, with the remaining concentrations being successively diluted at a dilution factor of 3.16 times, and the DMSO content in the cell culture plate was 0.1%. The cell plate was placed in a cell incubator and cultured for 72 hours. For endpoint detection, the CellTiter-Glo reagent was melted, and the cell plate was moved to room temperature to equilibrate for 30 minutes, added with 100 μL of CellTiter-Glo for each well, and shaken on an orbital shaker for 5 minutes to fully lyse the cells. The plate was kept at room temperature for 20 minutes to stabilize the luminescence signal, and the luminescence value of each well was scanned with a multi-functional microplate reader at full wavelength. • [Test samples] […]
In general terms: ATP-based viability assays read luminescence as a measure of living cells.
For the compound `Cn1ncc2cc(Oc3ccc(NC(=O)c4ccc(C(F)(F)F)n(-c5ccc(F)cc5)c4=O)cc3F)c(-c3cn[nH]c3)cc21` [Example 1, N-(3-fluoro-4-(1-methyl-6-(1H-pyrazol-4-yl)-1H-indazol-5-yloxy)phenyl)-1-(4-fluorophenyl)-6-trifluoromethyl-2-oxo-1,2-dihydmpyridine-3-carboxamide monomethanesulfonate], the negative logarithm of the IC50 (pIC50) (as a rule, −log10 of the IC50, conventionally taken in molar units) is 5.51.
The same measure for `Cn1ncc2cc(Oc3ccc(NC(=O)c4ccc(C5CC5)n(-c5ccc(F)cc5)c4=O)cc3F)c(-c3cn[nH]c3)cc21` [Example 2, N-(3-fluoro-4-(1-methyl-6-(1H-pyrazol-4-yl)-1H-indazol-5-yloxy)phenyl)-1-(4-fluorophenyl)-6-cyclopropyl-2-oxo-1,2-dihydmpyridine-3-carboxamide]: 5.73.
The same measure for `CCn1ncc2cc(Oc3ccc(NC(=O)c4ccc(C)n(-c5ccc(F)cc5)c4=O)cc3F)c(-c3cn[nH]c3)cc21` [Example 3, N-(3-fluoro-4-(1-ethyl-6-(1H-pyrazol-4-yl)-1H-indazol-5-yloxy)phenyl)-1-(4-fluorophenyl)-6-methyl-2-oxo-1,2-dihydmpyridine-3-carboxamide]: 5.01; for `Cc1ccc(C(=O)Nc2ccc(Oc3cc4cnn(C(C)C)c4cc3-c3cn[nH]c3)c(F)c2)c(=O)n1-c1ccc(F)cc1` [Example 4, N-(3-fluoro-4-(1-isopropyl-6-(1H-pyrazol-4-yl)-1H-indazol-5-yloxy)phenyl)-1-(4-fluorophenyl)-6-methyl-2-oxo-1,2-dihydmpyridine-3-carboxamide]: less than 5.00; for `CCc1ccc(C(=O)Nc2ccc(Oc3cc4cnn(C)c4cc3-c3cn[nH]c3)c(F)c2)c(=O)n1-c1ccc(F)cc1` [Example 5, N-(3-fluoro-4-(1-methyl-6-(1H-pyrazol-4-yl)-1H-indazol-5-yloxy)phenyl)-1-(4-fluorophenyl)-6-ethyl-2-oxo-1,2-dihydropyridine-3-carboxamide]: 5.57.
Under `CC(C)c1ccc(C(=O)Nc2ccc(Oc3cc4cnn(C)c4cc3-c3cn[nH]c3)c(F)c2)c(=O)n1-c1ccc(F)cc1` [Example 6, N-(3-fluoro-4-(1-methyl-6-(1H-pyrazol-4-yl)-1H-indazol-5-yloxy)phenyl)-1-(4-fluorophenyl)-6-isopropyl-2-oxo-1,2-dihydropyridine-3-carboxamide] stands 5.55; under `O=C(Nc1cnn2ccc(N3CCC[C@@H]3c3cc(F)ccc3F)nc12)N1CC[C@H](O)C1` [LOXO-101, Larotrectinib, reference compound], less than 5.00; under `Cc1ccc(C(=O)Nc2ccc(Oc3cc4cnn(C)c4cc3-c3cn[nH]c3)c(F)c2)c(=O)n1-c1ccc(F)cc1` [Merestinib, reference compound], 5.52.
